The data set is described as follows: Log P. The note with it: Log P (min), Table I.

Molecules are shown by their SMILES.

By chromatographic logP is commonly meant lipophilicity estimated from chromatographic retention. High values mean a more lipophilic compound, low ones a more hydrophilic compound.

`CC(C)(N)C(=O)N[C@H](Cc1c[nH]c2ccccc12)C(=O)N1CCCC(N(c2ccccc2)S(=O)(=O)c2ccccc2)C1` (single isomer, unassigned) [3b] returned a chromatographic logP of 3.2.

Turning to `CC(C)(N)C(=O)N[C@H](Cc1c[nH]c2ccccc12)C(=O)N1CCCC(N(Cc2ccccc2)S(=O)(=O)c2ccccc2)C1` (some centres unmarked) [3a], the chromatographic logP amounted to 3.6.

These data come from patent publication US5559128A, “3-substituted piperidines promote release of growth hormone” (Merck & Co., Inc., priority 1995, dated 1996).
